Counter-ions that a name gives are not always drawn. Peptide text beside a SMILES is read from it.
Experiments:
[1] = tested on: NCI-H292 lung cancer cells; test: FDA drug screening, complete media vs cholesterol-free media without statin (TABLE 1); assay type: cell-based, human
[2] = tested on: NCI-H292 lung cancer cells; test: FDA drug screening, complete media vs cholesterol-free media with simvastatin (TABLE 2); assay type: cell-based, human; conditions: for Cholesterol-free media + simvastatin (0.04 μM) / Complete Media: NCI-H292 cells
[3] = Complete minus Cholesterol-free, greater than 0 enhanced anti-cancer activity, about 0 neutral, below 0 antagonists
[4] = NCI-H292 cells in cholesterol-free media without statin
[5] = NCI-H292 cells in complete media
[6] = cholesterol-free media with simvastatin 0.04 μM, cell growth value in FDA drug screen
[7] = complete media, cell growth value in FDA drug screen
[8] = complete media minus cholesterol-free media + simvastatin, >0 enhanced anti-cancer activity, about 0 neutral, <0 antagonist
[9] = NCI-H292 cells, cholesterol-free media without statin, FDA drug library screen
[10] = NCI-H292 cells, complete media, FDA drug library screen
[11] = FDA drug library screen, cholesterol-free media with simvastatin 0.04 μM
[12] = FDA drug library screen, complete media
[13] = complete media vs cholesterol-free media + simvastatin (0.04 μM), >0 enhanced anti-cancer activity, about 0 neutral, <0 antagonist
[14] = NCI-H292 cells, cholesterol-free media without statin
[15] = complete vs cholesterol-free media, greater than 0 enhanced anti-cancer activity, about 0 neutral, below 0 antagonists
[16] = cholesterol-free media with simvastatin 0.04 μM, FDA drug library screen (TABLE 2)
[17] = complete media, FDA drug library screen (TABLE 2)
[18] = complete media minus cholesterol-free media + simvastatin (0.04 μM), >0 enhanced anti-cancer activity, about 0 neutral, <0 antagonist
[19] = Complete minus Cholesterol-free, >0 enhanced anti-cancer activity, about 0 neutral, <0 antagonist
[20] = Complete minus Cholesterol-free, […]
[21] = FDA library drug in cholesterol-free media with simvastatin 0.04 μM
[22] = FDA library drug in complete media

**Q.** Which results are given for CC(=O)[C@H]1CC[C@H]2[C@@H]3C=CC4=CC(=O)CC[C@@]4(C)[C@@H]3CC[C@]12C [Dydrogesterone]?
**A.** Difference [1, 3]: −0.68; Cholesterol-free [1, 4]: 1.745; Complete [1, 5]: 1.064; Cholesterol-free media + simvastatin (0.04 μM) [2, 6]: 1.183; Complete Media [2, 7]: 1.295; Difference [2, 8]: 0.11

**Q.** How did the Cholesterol-free [1, 9] turn out when NC(=O)C(c1ccccc1)(c1ccccc1)[C@@H]1CCN(CCc2ccc3c(c2)CCO3)C1 (racemic) [(±)-Darifenacin] was run?
**A.** 1.009

**Q.** And the Complete [1, 10]?
**A.** 1.18

**Q.** And the Difference ([1]; complete vs cholesterol-free media, >0 enhanced anti-cancer activity, about 0 neutral, <0 antagonist)?
**A.** 0.17

**Q.** And the “Cholesterol-free media + simvastatin (0.04 μM)” value [2, 11]?
**A.** 0.9772

**Q.** What about the “Complete Media” value [2, 12] of the same compound?
**A.** 0.8726

**Q.** And the Difference [2, 13]?
**A.** −0.10

**Q.** How did the Cholesterol-free [1, 14] turn out when O=C1CC[C@@H](C(=O)N2CSC[C@H]2C(=O)O)N1 [Pidotimod] (HELM PEPTIDE1{[Glp].[O=C(O)[C@@H]1CSCN1[*:1]]}$$$$V2.0) was run?
**A.** 1.383

**Q.** What about the Complete ([1]; NCI-H292 cells, complete media) of the same compound?
**A.** 0.9708

**Q.** What about the Difference [1, 15] of the same compound?
**A.** −0.41

**Q.** And the “Cholesterol-free media + simvastatin (0.04 μM)” value [2, 16]?
**A.** 1.016

**Q.** What about the “Complete Media” value [2, 17] of the same compound?
**A.** 1.03

**Q.** What about the Difference [2, 18] of the same compound?
**A.** 0.01

**Q.** What does the source list for N[C@H](CS)C(=O)O [D-Cysteine]?
**A.** Cholesterol-free [1, 14]: 1.1; Complete ([1]; NCI-H292 cells, complete media): 0.7316; Difference [1, 15]: −0.37; Cholesterol-free media + simvastatin (0.04 μM) ([2]; drug in cholesterol-free media with simvastatin 0.04 μM): 1.145; Complete Media ([2]; drug in complete media): 0.9078; Difference [2, 13]: −0.24

**Q.** C=CC[C@@H]1/C=C(\C)C[C@H](C)C[C@H](OC)[C@H]2O[C@@](O)(C(=O)C(=O)N3CCCC[C@H]3C(=O)O[C@H](/C(C)=C/[C@@H]3CC[C@@H](O)[C@H](OC)C3)[C@H](C)[C@@H](O)CC1=O)[C@H](C)C[C@@H]2OC [Tacrolimus (monohydrate)] was tested. Which Difference [1, 19] did it give?
**A.** −0.26

**Q.** And the Cholesterol-free [1, 14]?
**A.** 1.012

**Q.** And the Complete ([1]; NCI-H292 cells, complete media)?
**A.** 0.7533

**Q.** And the “Cholesterol-free media + simvastatin (0.04 μM)” value [2, 6]?
**A.** 1.131

**Q.** What about the “Complete Media” value [2, 7] of the same compound?
**A.** 1.225

**Q.** What about the Difference [2, 8] of the same compound?
**A.** 0.09

**Q.** Which results are given for Cc1ccccc1-n1c(CF)nc2ccc(N)cc2c1=O [Afloqualone]?
**A.** Difference [1, 20]: 0.04; Cholesterol-free [1, 9]: 1.063; Complete [1, 10]: 1.104; Cholesterol-free media + simvastatin (0.04 μM) [2, 11]: 1.16; Complete Media [2, 12]: 1.332; Difference ([2]; complete media minus cholesterol-free media + simvastatin, […]): 0.17

**Q.** Which results are given for Cc1ncc([N+](=O)[O-])n1C [Dimetridazole]?
**A.** Cholesterol-free [1, 14]: 1.219; Complete ([1]; NCI-H292 cells, complete media): 0.8738; Difference [1, 15]: −0.35; Cholesterol-free media + simvastatin (0.04 μM) [2, 21]: 1.602; Complete Media [2, 22]: 0.8915; Difference [2, 13]: −0.71

**Q.** CN1CC[C@@H](NC(=O)Nc2ccc(C#N)cc2)C[C@@H]1c1nc2ccccc2[nH]1 [Glasdegib] was tested. Which Cholesterol-free [1, 14] did it give?
**A.** 1.398

**Q.** And the Complete ([1]; NCI-H292 cells, complete media)?
**A.** 0.9821

**Q.** What about the Difference [1, 15] of the same compound?
**A.** −0.42

**Q.** And the “Cholesterol-free media + simvastatin (0.04 μM)” value [2, 11]?
**A.** 0.7992

**Q.** And the “Complete Media” value [2, 12]?
**A.** 0.9809

**Q.** What about the Difference [2, 8] of the same compound?
**A.** 0.18

**Q.** Which Difference [1, 19] does the source give for Cc1c(-c2ccccc2)oc2c(C(=O)OCCN3CCCCC3)cccc2c1=O [Flavoxate (hydrochloride)] here?
**A.** 0.01

**Q.** And the Cholesterol-free [1, 9]?
**A.** 0.984

**Q.** And the Complete [1, 10]?
**A.** 0.9957

**Q.** And the “Cholesterol-free media + simvastatin (0.04 μM)” value [2, 16]?
**A.** 0.9542

**Q.** What about the “Complete Media” value [2, 17] of the same compound?
**A.** 0.8849

**Q.** What about the Difference [2, 18] of the same compound?
**A.** −0.07

**Q.** How did the Difference [1, 19] turn out when Cc1cn([C@H]2O[C@@H](CO)[C@H](O)[C@H]2F)c(=O)[nH]c1=O [Clevudine] was run?
**A.** −0.06

**Q.** And the Cholesterol-free [1, 9]?
**A.** 0.975

**Q.** What about the Complete [1, 10] of the same compound?
**A.** 0.9127

**Q.** What about the “Cholesterol-free media + simvastatin (0.04 μM)” value [2, 11] of the same compound?
**A.** 0.7152

**Q.** What about the “Complete Media” value [2, 12] of the same compound?
**A.** 0.881

**Q.** And the Difference [2, 8]?
**A.** 0.17

**Q.** CC(Oc1c(Cl)cccc1Cl)C1=NCCN1 (centres unmarked) [Lofexidine] was tested. Which Difference ([1]; Complete minus Cholesterol-free, greater than 0 enhanced anti-cancer activity, about 0 neutral, below 0 antagonist) did it give?
**A.** −0.14

**Q.** What about the Cholesterol-free ([1]; NCI-H292 cells, FDA drug library screen, cholesterol-free media without statin) of the same compound?
**A.** 0.8805

**Q.** And the Complete ([1]; NCI-H292 cells, FDA drug library screen, complete media)?
**A.** 0.7367

**Q.** What about the “Cholesterol-free media + simvastatin (0.04 μM)” value [2, 21] of the same compound?
**A.** 1.108

**Q.** What about the “Complete Media” value [2, 22] of the same compound?
**A.** 0.8401

**Q.** What about the Difference [2, 13] of the same compound?
**A.** −0.27

**Q.** Which results are given for Cc1ccc(C(=O)Nc2ccc(S(=O)(=O)O)c3cc(S(=O)(=O)O)cc(S(=O)(=O)O)c23)cc1NC(=O)c1cccc(NC(=O)Nc2cccc(C(=O)Nc3cc(C(=O)Nc4ccc(S(=O)(=O)O)c5cc(S(=O)(=O)O)cc(S(=O)(=O)O)c45)ccc3C)c2)c1 [Suramin (sodium salt)]?
**A.** Difference [1, 3]: −0.70; Cholesterol-free [1, 4]: 1.64; Complete [1, 5]: 0.9404; Cholesterol-free media + simvastatin (0.04 μM) [2, 21]: 1.303; Complete Media [2, 22]: 0.9716; Difference [2, 13]: −0.33

**Q.** With C#Cc1cccc(Nc2ncnc3cc4c(cc23)OCCOCCOCCO4)c1 [Icotinib] as the compound, how does the Difference [1, 19] read?
**A.** −0.05

**Q.** And the Cholesterol-free [1, 9]?
**A.** 0.4295

**Q.** What about the Complete [1, 10] of the same compound?
**A.** 0.3774

**Q.** What about the “Cholesterol-free media + simvastatin (0.04 μM)” value [2, 6] of the same compound?
**A.** 0.6476

**Q.** What about the “Complete Media” value [2, 7] of the same compound?
**A.** 0.6925

**Q.** And the Difference [2, 8]?
**A.** 0.04

**Q.** Which Difference [1, 20] does the source give for Gluconate (Calcium) here?
**A.** −0.74

**Q.** And the Complete [1, 5]?
**A.** 0.8786

**Q.** And the “Cholesterol-free media + simvastatin (0.04 μM)” value [2, 21]?
**A.** 1.134

**Q.** What about the “Complete Media” value [2, 22] of the same compound?
**A.** 0.8004

**Q.** And the Difference ([2]; complete media vs cholesterol-free media + simvastatin (0.04 μM), […])?
**A.** −0.33
